The values that follow come from patent US8067231B2 (priority 2005, dated 2011).

For this assay, the system named is Neuro-2A. The assay is classed as cell-based, mouse.

`CC1=C(/C=C/C(C)=C/C=C/C(C)=C/C(=O)O)C(C)(C)CCC1` [all trans retinoic acid, All Trans-Retinoic acid]: the “BoNT/A SNAP25197-cleavage product (uptake of BoNT/A) after differentiation reagent treatment” value is listed as “increase”.
